From patent publication US20120022040A1, “ANTIMICROBIALS” (priority 2008, published 2012) come the findings set out here.

In brackets after ≈: the same amount, converted by molar mass.

Test [1] deals with VSE 6569. In words: MIC90 determination by serial dilution. The format is cell-based, Vancomycin-sensitive enterococci faecium. As to conditions: dilution series from the Max Conc. How it is done:
(§1) Compounds (1), (2), and (3) were tested to determine MIC90 values.
(§2) Rules for determining MIC values: Each extract has a starting concentration which is diluted 7 times for a total of 8 dilutions. The MIC is the lowest dilution without growth. Each serial dilution is repeated three times for three identical dilutions. For reporting the results, the following rules were used. Inconsistent values were thrown out. For instance, the MIC value reported for an extract with MIC readings of 4, 4, and 2 would be four (the 2 is thrown out). If the readings are all different and in series like 2, 4, and 8, the median MIC value of 4 would be reported. If the three values are all different and not in series, an error is reported. Besides the three identical dilutions at the same starting concentration, each extract has dilutions starting at three different concentrations: 64, 4, and 0.25 μg/mL. Each extract therefore has 3 identical dilution series at 3 different starting concentrations—a total of 24 dilutions. The dilutions overlap which can result in a disagreement in MIC values for two different starting dilutions. Since a small amount of error is introduced with each dilution, the MIC readings with the fewest dilutions are selected as the correct MIC values.
(§3) Abbreviations: MRSA=methicillin-resistant Staphylococcus aureus; SA=Staphylococcus aureus; PA=Pseudomonas aeruginosa; Kleb=Klebsiella pneumonia; EC=Escherichia coli; VSE=Vancomycin-sensitive enterococci faecium.

Test [2] concerns VSE 49452. In words: MIC90 determination by serial dilution. The test is classed as cell-based, Vancomycin-sensitive enterococci faecium. As to conditions: dilution series from the Max Conc. The procedure: as §1, §2, §3
Test [3] concerns PA 27853. In words: MIC90 determination by serial dilution. The format is cell-based. As to conditions: Pseudomonas aeruginosa, dilution series from the Max Conc. How it is done:
as §1, §2, §3

Test [4] deals with SA 29213. The test can be described thus: MIC90 determination by serial dilution. The test is classed as cell-based. As to conditions: Staphylococcus aureus, dilution series from the Max Conc. The procedure:
as §1, §2, §3

Test [5] concerns EC 25922. The test can be described thus: MIC90 determination by serial dilution. The test is classed as cell-based. As to conditions: Escherichia coli, dilution series from the Max Conc. The procedure:
as §1, §2, §3

The test system of test [6] is PA 27853. In words: IC50 determination (XlFit dose response model 200). The format is cell-based. As to conditions: Pseudomonas aeruginosa, average of 3 replicates. The procedure:
(§4) Compounds (1), (2), and (3) were tested to determine IC50 values. IC50 was determined using XlFit add-in using dose response model 200. The average of 3 replicates is presented for each compound in Table 2.

Test [7] concerns SA 29213. The test can be described thus: IC50 determination (XlFit dose response model 200). The test is classed as cell-based. As to conditions: Staphylococcus aureus, average of 3 replicates. How it is done:
as §4

Test [8] relates to EC 25922. In words: IC50 determination (XlFit dose response model 200). The format is cell-based. As to conditions: Escherichia coli, average of 3 replicates. How it is done:
as §4

The test system of test [9] is Kleb 4352. In words: MIC90 determination by serial dilution. The format is cell-based, Klebsiella pneumonia. As to conditions: Klebsiella pneumoniae, dilution series from the Max Conc. How it is done:
as §1, §2, §3

Test [10] has as its system Kleb 4352. In words: IC50 determination (XlFit dose response model 200). The format is cell-based, Klebsiella pneumonia. As to conditions: Klebsiella pneumoniae, average of 3 replicates. The procedure: as §4
The subject of test [11] is MRSA 43300. The test can be described thus: MIC90 determination by serial dilution. The format is cell-based, methicillin-resistant Staphylococcus aureus. As to conditions: Staphylococcus aureus, dilution series from the Max Conc. How it is done: as §1, §2, §3
In test [12] the test system is VSE 6569. In words: IC50 determination (XlFit dose response model 200). The test is classed as cell-based, Vancomycin-sensitive enterococci faecium. As to conditions: average of 3 replicates. How it is done: as §4
Test [13] deals with VSE 49452. The test can be described thus: IC50 determination (XlFit dose response model 200). The test is classed as cell-based, Vancomycin-sensitive enterococci faecium. As to conditions: average of 3 replicates. The procedure:
as §4

The subject of test [14] is MRSA 43300. The test can be described thus: IC50 determination (XlFit dose response model 200). The format is cell-based, methicillin-resistant Staphylococcus aureus. As to conditions: Staphylococcus aureus, average of 3 replicates. How it is done:
as §4

In the case of `CCC(C)(C)C(=O)C(=O)N1CCCC[C@H]1C(=O)O[C@H](CCc1ccc(OC)c(OC)c1)c1cccc(OCCNC(=O)c2cccc(NC(=O)[C@@H]3C[C@H](SC4=C(C(=O)O)N5C(=O)[C@H]([C@@H](C)O)[C@H]5[C@H]4C)CN3)c2)c1` [(1), (4R,5S,6S)-3-((3S,5S)-5-(3-(2-(3-((R)-3-(3,4-dimethoxyphenyl)-1-((S)-1-(3,3-dimethyl-2-oxopentanoyl)piperidine-2-carbonyloxy)propyl)phenoxy)ethylcarbamoyl)phenylcarbamoyl)pyrrolidin-3-ylthio)-6-((R)-1-hydroxyethyl)-4-methyl-7-oxo-1-azabicyclo[3.2.0]hept-2-ene-2-carboxylic acid], the MIC90 (in general, an inhibitory concentration at the 90% level, which refers to growth in some studies and to a panel of isolates in others) was 64 µg/mL (≈ 62.4 µM) in [1]; 16 µg/mL (≈ 15.6 µM) in test [2]; over 64 µg/mL in [3]; 2 µg/mL (≈ 1.95 µM) in test [4]; over 64 µg/mL in test [5]; over 64 µg/mL in test [9]. In test [11], this compound registered an MIC90 of 8 µg/mL (≈ 7.8 µM). In addition, the IC50 (in general, the concentration that gives 50% inhibition) in [6] was over 64 µg/mL; in test [7], 0.942 µg/mL (≈ 0.918 µM); in test [8], over 64 µg/mL; in test [10], over 64 µg/mL; in test [12], 15.2 µg/mL (≈ 14.8 µM); in test [13], 6.91 µg/mL (≈ 6.73 µM). In test [14], the IC50 is 0.265 µg/mL (≈ 0.258 µM).

For the compound `CCC(C)(C)C(=O)C(=O)N1CCCC[C@H]1C(=O)O[C@H](CCc1ccc(OC)c(OC)c1)c1cccc(OCC(=O)NCCCCCN2C[C@@H](SC3=C(C(=O)O)N4C(=O)[C@H]([C@@H](C)O)[C@H]4[C@H]3C)C[C@H]2C(=O)N(C)C)c1` [(2), (4R,5S,6S)-3-((3S,5S)-1-(5-(2-(3-((R)-3-(3,4-dimethoxyphenyl)-1-((S)-1-(3,3-dimethyl-2-oxopentanoyl)piperidine-2-carbonyloxy)propyl)phenoxy)acetamido)pentyl)-5-(dimethylcarbamoyl)pyrrolidin-3-ylthio)-6-((R)-1-hydroxyethyl)-4-methyl-7-oxo-1-azabicyclo[3.2.0]hept-2-ene-2-carboxylic acid], the MIC90 in test [1] was 32 µg/mL (≈ 30.9 µM); in test [2] it was 16 µg/mL (≈ 15.5 µM); in test [3] it was over 64 µg/mL; in test [4], 2 µg/mL (≈ 1.93 µM); in [5], over 64 µg/mL; in [9] it was over 64 µg/mL. In addition, the MIC90 in test [11] turned out to be 8 µg/mL (≈ 7.73 µM). Also, the half-inhibitory concentration (IC50) in test [6] was over 64 µg/mL; in test [7] it was 0.871 µg/mL (≈ 0.842 µM); in test [8], over 64 µg/mL; in test [10], over 64 µg/mL; in [12], 7.23 µg/mL (≈ 6.99 µM); in test [13] it was 1.6 µg/mL (≈ 1.55 µM). For the same compound, the IC50 in test [14] came to 0.17 µg/mL (≈ 0.164 µM).

`NCC[C@H](O)C(=O)N[C@@H]1C[C@H](N)[C@@H](O[C@H]2O[C@H](CN)[C@@H](O)[C@H](O)[C@H]2O)[C@H](O)[C@H]1O[C@H]1O[C@H](CO)[C@@H](O)[C@H](N)[C@H]1O` [Amikacin] registered an MIC90 in test [3] of 1 µg/mL (≈ 1.71 µM). Half-maximal inhibition in [6] (IC50) required 0.274 µg/mL (≈ 0.468 µM).

As for `O=C(N[C@H](CO)[C@H](O)c1ccc([N+](=O)[O-])cc1)C(Cl)Cl` [Chloramphenicol], the MIC90 was at most 2 µg/mL in test [1]; 4 µg/mL (≈ 12.4 µM) in test [2]; over 64 µg/mL in [3]; 8 µg/mL (≈ 24.8 µM) in test [4]; 8 µg/mL (≈ 24.8 µM) in test [5]; at most 2 µg/mL in [9]. The compound also yielded an MIC90 in test [11] of 4 µg/mL (≈ 12.4 µM). The concentration for half-maximal inhibition (IC50) in test [6] was over 64 µg/mL; in [7], over 64 µg/mL; in [8], under 2 µg/mL; in test [10], over 64 µg/mL; in test [12], under 2 µg/mL; in test [13], under 2 µg/mL. The compound further registered a half-maximal inhibitory concentration (IC50) in test [14] of under 2 µg/mL.

With `C[C@H]1c2cccc(O)c2C(=O)C2=C(O)[C@]3(O)C(=O)C(C(N)=O)=C(O)[C@@H](N(C)C)[C@@H]3[C@@H](O)[C@@H]21` [Doxycycline], the MIC90 in test [3] worked out at 32 µg/mL (≈ 72 µM). In addition, in [6], inhibition was half-maximal at 6.3 µg/mL (≈ 14.2 µM) (IC50).

Take `CC[C@H]1OC(=O)[C@H](C)[C@@H](O[C@H]2C[C@@](C)(OC)[C@@H](O)[C@H](C)O2)[C@H](C)[C@@H](O[C@@H]2O[C@H](C)C[C@H](N(C)C)[C@H]2O)[C@](C)(O)C[C@@H](C)C(=O)[C@H](C)[C@@H](O)[C@]1(C)O` [Erythromycin]: the MIC90 in test [1] was 8 µg/mL (≈ 10.9 µM); in test [2] it was at most 2 µg/mL; in test [3] it was over 64 µg/mL; in [4] it was at most 2 µg/mL; in test [5], 64 µg/mL (≈ 87.2 µM); in [9], 8 µg/mL (≈ 10.9 µM). The MIC90 in test [11] was over 64 µg/mL. In addition, the half-inhibitory concentration (IC50) in test [6] was over 64 µg/mL; in test [7], under 2 µg/mL; in [8] it was 20.7 µg/mL (≈ 28.2 µM); in [10] it was 2.21 µg/mL (≈ 3.01 µM); in test [12], 2.75 µg/mL (≈ 3.75 µM); in test [13], under 2 µg/mL. In test [14], the IC50 is over 64 µg/mL.

As for `C[C@@H](O)[C@H]1C(=O)N2C(C(=O)O)=C(S[C@@H]3CN[C@H](C(=O)N(C)C)C3)[C@H](C)[C@H]12` [Meropenem, meropenem, reference compound], the MIC90 in test [1] is 32 µg/mL (≈ 83.4 µM); in test [2], 16 µg/mL (≈ 41.7 µM); in [3], 1 µg/mL (≈ 2.61 µM); in test [4] it was 0.25 µg/mL (≈ 0.652 µM); in [5], 0.06 µg/mL (≈ 0.156 µM); in test [9] it was 0.12 µg/mL (≈ 0.313 µM). Moreover, the MIC90 in test [11] turned out to be 4 µg/mL (≈ 10.4 µM). The 50% inhibitory concentration (IC50) in test [6] worked out at 0.945 µg/mL (≈ 2.46 µM); in [7] it was 0.126 µg/mL (≈ 0.329 µM); in test [8], 0.122 µg/mL (≈ 0.318 µM); in [10], 0.121 µg/mL (≈ 0.316 µM); in test [12] it was 11.8 µg/mL (≈ 30.8 µM); in test [13], 6.74 µg/mL (≈ 17.6 µM). In test [14], this compound came in with a half-maximal inhibitory concentration (IC50) of 0.037 µg/mL (≈ 0.0965 µM).

As for `O=C1CN(/N=C/c2ccc([N+](=O)[O-])o2)C(=O)N1` [Nitrofurantoin], the MIC90 in test [1] is 32 µg/mL (≈ 134 µM); in test [2] it was 8 µg/mL (≈ 33.6 µM); in test [3] it was over 32 µg/mL; in [4] it was 16 µg/mL (≈ 67.2 µM); in test [5], 8 µg/mL (≈ 33.6 µM); in [9], 16 µg/mL (≈ 67.2 µM). The MIC90 in test [11] is 8 µg/mL (≈ 33.6 µM). Also, the concentration for half-maximal inhibition (IC50) in test [6] is over 32 µg/mL; in [7] it was 7.71 µg/mL (≈ 32.4 µM); in test [8], 3.27 µg/mL (≈ 13.7 µM); in test [10] it was 3.68 µg/mL (≈ 15.4 µM); in [12] it was 2.87 µg/mL (≈ 12.1 µM); in [13], 3.57 µg/mL (≈ 15 µM). Besides, the IC50 in test [14] came to 1.83 µg/mL (≈ 7.67 µM).
